One assay has as its system MV4-11 cells. Nature of the assay: In vitro antiproliferative CCK-8 assay, MV4-11. The format is cell-based. As to conditions: Homo sapiens, 72 h, read-out: IC50 growth inhibition MV4-11. The procedure: (§1) The proliferation of THP-1, MOLM-13, SEM and MV4-11 cells was tested by CCK-8 assay. Briefly, cells were seeded in 96-well plate with about 5 × 10^3 cells in each well. The cells were treated with P6 or Ara-C (0–10 µM) after 24 h of incubation. CCK-8 reagent ([…]) was added to each well after 72 h of incubation, and cells were incubated at 37°C for 4 h. The light absorbance at 450 nm was measured by using an Opsys microplate reader (Dynex Technologirs, Chantilly, VA, United States). Results are illustrated as percent of cell viability normalized to DMSO-treated control cells.

The test system of another assay is THP-1 cells. Nature of the assay: In vitro antiproliferative CCK-8 assay, THP-1. The format is cell-based. Conditions: Homo sapiens; for inhibition at 1 µM: dose of 1 μM, mean of three experiments, read-out: THP-1 percentage inhibitory rate. The protocol: as §1
In general terms: Tetrazolium dyes change colour on reduction, which living cells bring about.

The subject of assay [1] is THP-1, MOLM-13, SEM and MV4-11 cells. The assay is described as follows: Cell apoptosis analysis, MLLr leukemic cells. The class given is cell-based. As to conditions: 72 h, flow cytometry. The procedure:
THP-1, MOLM-13, SEM and MV4-11 cells were treated with P6 (0.45–4 µM) or Ara-C (0.1–2.0 µM) for 72 h, collected and resuspended in 1× binding buffer. Cells were incubated with FITC Annexin V and PI double labeling for 30 min in the dark at room temperature and measured by flow cytometry.

The next assay deals with SEM cells. Nature of the assay: In vitro antiproliferative CCK-8 assay, SEM. The format is cell-based. As to conditions: 72 h, read-out: IC50 growth inhibition SEM. The protocol:
as §1

A further assay concerns MOLM-13 cells. Nature of the assay: In vitro antiproliferative CCK-8 assay, MOLM-13. The format is cell-based. Conditions: Homo sapiens, 72 h, read-out: IC50 growth inhibition MOLM-13. The protocol:
as §1

For another assay, the target named is T1, SIRT2 (Homo sapiens, UniProt Q8IXJ6).
T1 sequence (Q8IXJ6 1-389): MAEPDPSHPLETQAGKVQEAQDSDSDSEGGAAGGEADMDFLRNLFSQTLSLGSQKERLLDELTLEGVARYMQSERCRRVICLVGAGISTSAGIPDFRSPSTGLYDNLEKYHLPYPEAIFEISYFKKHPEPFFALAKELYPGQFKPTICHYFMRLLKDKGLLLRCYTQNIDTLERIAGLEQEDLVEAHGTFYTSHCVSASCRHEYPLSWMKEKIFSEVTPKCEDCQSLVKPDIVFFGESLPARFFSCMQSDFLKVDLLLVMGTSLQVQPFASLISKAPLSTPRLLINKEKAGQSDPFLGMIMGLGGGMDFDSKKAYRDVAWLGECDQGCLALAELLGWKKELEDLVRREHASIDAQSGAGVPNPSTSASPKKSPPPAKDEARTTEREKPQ
Conditions: ref Galli et al., 2012; cited from earlier work.

Another assay has as its target T2, SIRT1 (Homo sapiens, UniProt Q96EB6).
T2 sequence (Q96EB6 1-747): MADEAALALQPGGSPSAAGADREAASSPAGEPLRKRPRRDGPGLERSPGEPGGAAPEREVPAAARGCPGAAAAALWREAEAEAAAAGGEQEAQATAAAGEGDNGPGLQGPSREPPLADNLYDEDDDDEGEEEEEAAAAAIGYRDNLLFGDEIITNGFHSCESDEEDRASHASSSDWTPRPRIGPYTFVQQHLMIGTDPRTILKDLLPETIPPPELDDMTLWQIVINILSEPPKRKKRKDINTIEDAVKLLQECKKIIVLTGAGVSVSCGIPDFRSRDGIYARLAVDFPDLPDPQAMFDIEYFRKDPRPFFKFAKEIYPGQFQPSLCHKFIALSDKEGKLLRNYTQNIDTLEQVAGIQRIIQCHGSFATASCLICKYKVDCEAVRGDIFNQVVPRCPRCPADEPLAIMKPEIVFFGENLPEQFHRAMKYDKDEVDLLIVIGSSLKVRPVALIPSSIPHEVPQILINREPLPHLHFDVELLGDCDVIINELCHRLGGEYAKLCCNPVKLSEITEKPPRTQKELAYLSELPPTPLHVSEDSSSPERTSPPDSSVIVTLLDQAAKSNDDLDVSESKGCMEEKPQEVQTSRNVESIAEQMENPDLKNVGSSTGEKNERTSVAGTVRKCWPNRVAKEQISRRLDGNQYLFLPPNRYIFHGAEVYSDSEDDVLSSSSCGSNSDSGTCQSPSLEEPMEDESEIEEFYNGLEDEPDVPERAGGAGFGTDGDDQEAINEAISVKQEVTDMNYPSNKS
As to conditions: ref Galli et al., 2012; cited from earlier work.

The target of the next assay is T3, SIRT3 (Homo sapiens, UniProt Q9NTG7).
T3 sequence (Q9NTG7 1-399): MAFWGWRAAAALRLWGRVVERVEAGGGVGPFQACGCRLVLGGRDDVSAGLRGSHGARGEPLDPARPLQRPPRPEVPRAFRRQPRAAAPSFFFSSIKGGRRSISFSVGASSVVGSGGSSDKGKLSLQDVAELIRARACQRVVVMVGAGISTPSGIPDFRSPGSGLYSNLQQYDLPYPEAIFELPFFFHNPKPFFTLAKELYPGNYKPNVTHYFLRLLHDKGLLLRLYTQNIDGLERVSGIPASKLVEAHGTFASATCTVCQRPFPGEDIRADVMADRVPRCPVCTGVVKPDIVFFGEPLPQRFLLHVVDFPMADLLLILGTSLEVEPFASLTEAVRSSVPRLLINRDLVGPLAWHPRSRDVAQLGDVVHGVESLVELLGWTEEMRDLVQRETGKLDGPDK
Nature of the assay: SIRT3 enzyme inhibitory assay (fluorescence). The class given is biochemical. As to conditions: dose of 10 μM; mean of three experiments; read-out: SIRT3 percentage inhibitory rate. The procedure:
All of the enzymatic reactions were conducted at 37°C for 30 min. […] The compounds were diluted in 10% DMSO and 5 ul of the dilution was added to each reaction mixture (50 ul). The assay was performed by quantitating the amount of fluorescent product generated from the enzyme reaction. Fluorescence intensity is then analyzed at excitation wavelength of 350–360 nm and emission wavelength of 450–460 nm on a SpectraMax M5 microtiter plate reader. The IC50 values were calculated using Prism GraphPad software.

Results on 16 compounds are retold here after PMC9005971, “Discovery of 2-(4-Acrylamidophenyl)-Quinoline-4-Carboxylic Acid Derivatives as Potent SIRT3 Inhibitors” (Frontiers in Chemistry, 2022).

The structures appear in SMILES notation.

As a reminder, the IC50 is the concentration that inhibits the measured activity by half. Consider `Nc1ccn([C@@H]2O[C@H](CO)[C@@H](O)[C@@H]2O)c(=O)n1` [Ara-C, Cytarabine, reference compound], for which the IC50 in the assay on MV4-11 cells is 540 nM; in the assay on THP-1 cells (72 h, CCK-8, read-out: IC50 growth inhibition THP-1) it was 520 nM; in the assay with SEM cells, 60 nM; in the assay on MOLM-13 cells, 60 nM. In addition, in the assay with THP-1 cells, the inhibition at 1 µM was 80.4 ± 3.22%. Also, in assay [1], the induction of apoptosis entry is “obvious apoptosis”.
Take `c1cncc(-c2c[nH]nn2)c1` [Compound 3-TYP]: the IC50 on SIRT2 is 92 nM; at SIRT1 it was 88 nM.
`C=CC(=O)Nc1ccc(-c2cc(C(=O)N3CCN(c4ccc(OC)cc4)CC3)c3ccccc3n2)cc1` [Compound P7, N-(4-{4-[4-(4-Methoxy-phenyl)-piperazine-1-carbonyl]-quinolin-2-yl}-phenyl)-acrylamide]: in the assay on THP-1 cells, the inhibition at 1 µM came out at 12.4 ± 1.07%. Further, at SIRT3, the inhibition at 10 µM amounted to 24.9 ± 1.47%.
Take `C=CC(=O)Nc1ccc(-c2cc(C(=O)N3CCN(c4ccccc4OC)CC3)c3ccccc3n2)cc1` [Compound P8, N-(4-{4-[4-(2-Methoxy-phenyl)-piperazine-1-carbonyl]-quinolin-2-yl}-phenyl)-acrylamide]: in the assay on THP-1 cells, the inhibition at 1 µM is 73.7 ± 3.74%. The inhibition at 10 µM on SIRT3 was 45.5 ± 3.67%.
Consider `C=CC(=O)Nc1ccc(-c2cc(C(=O)N3CCN(CCc4ccccc4)CC3)c3ccccc3n2)cc1` [Compound P9, N-{4-[4-(4-Phenethyl-piperazine-1-carbonyl)-quinolin-2-yl]-phenyl}-acrylamide], for which the inhibition at 1 µM in the assay on THP-1 cells was 11.7 ± 0.88%. Besides, the inhibition at 10 µM on SIRT3 is 30.2 ± 1.94%.
The matching figures for `C=CC(=O)Nc1ccc(-c2cc(C(=O)Nc3ccc(Br)cc3)c3ccccc3n2)cc1` [Compound P10, 2-(4-Acryloylamino-phenyl)-quinoline-4-carboxylic acid (4-bromo-phenyl)-amide]: 44.3 ± 1.96% and 26.8 ± 1.88%.
As for `C=CC(=O)Nc1ccc(-c2cc(C(=O)Nc3ccc(Cl)cc3)c3ccccc3n2)cc1` [Compound P11, 2-(4-Acryloylamino-phenyl)-quinoline-4-carboxylic acid (4-chloro-phenyl)-amide], the inhibition at 1 µM in the assay on THP-1 cells stood at 58 ± 2.08%. Further, the inhibition at 10 µM on SIRT3 came out at 35.7 ± 1.54%.
The like results for `C=CC(=O)Nc1ccc(-c2cc(C(=O)Nc3ccc(C)cc3)c3ccccc3n2)cc1` [Compound P12, 2-(4-Acryloylamino-phenyl)-quinoline-4-carboxylic acid p-tolylamide] were, in that order, 72.8 ± 3.25% and 38.9 ± 2.62%.
As for `C=CC(=O)Nc1ccc(-c2cc(C(=O)Nc3ccc(CC)cc3)c3ccccc3n2)cc1` [Compound P13, 2-(4-Acryloylamino-phenyl)-quinoline-4-carboxylic acid (4-ethyl-phenyl)-amide], the inhibition at 1 µM with THP-1 cells is 59.9 ± 3.27%. Moreover, the inhibition at 10 µM at SIRT3 worked out at 40.2 ± 2.91%.
The like results for `C=CC(=O)Nc1ccc(-c2cc(C(=O)Nc3ccc(F)cc3)c3ccccc3n2)cc1` [Compound P14, 2-(4-Acryloylamino-phenyl)-quinoline-4-carboxylic acid (4-fluoro-phenyl)-amide] were, in that order, 53.2 ± 4.26% and 26.4 ± 1.78%.
The matching figures for `C=CC(=O)Nc1ccc(-c2cc(C(=O)Nc3cc(OC)cc(OC)c3)c3ccccc3n2)cc1` [Compound P15, 2-(4-Acryloylamino-phenyl)-quinoline-4-carboxylic acid (3,5-dimethoxy-phenyl)-amide]: 49.6 ± 2.52% and 42.8 ± 1.26%.
Take `C=CC(=O)Nc1ccc(-c2cc(C(=O)Nc3ccc(OC)cc3)c3ccccc3n2)cc1` [Compound P16, 2-(4-Acryloylamino-phenyl)-quinoline-4-carboxylic acid (4-methoxy-phenyl)-amide]: in the assay on THP-1 cells, the inhibition at 1 µM was 13.3 ± 1.23%. The inhibition at 10 µM at SIRT3 is 28.4 ± 1.85%.
Consider `C=CC(=O)Nc1ccc(-c2cc(C(=O)Nc3ccc(OCC)cc3)c3ccccc3n2)cc1` [Compound P17, 2-(4-Acryloylamino-phenyl)-quinoline-4-carboxylic acid (4-ethoxy-phenyl)-amide], for which the inhibition at 1 µM in the assay on THP-1 cells came to 13.8 ± 1.01%. For the same compound, at SIRT3, the inhibition at 10 µM came out at 29.6 ± 1.43%.
The matching figures for `C=CC(=O)Nc1ccc(-c2cc(C(=O)Nc3ccc(CCCCC)cc3)c3ccccc3n2)cc1` [Compound P18, 2-(4-Acryloylamino-phenyl)-quinoline-4-carboxylic acid (4-pentyl-phenyl)-amide]: 30 ± 1.39% and 30.6 ± 2.89%.
The matching figures for `C=CC(=O)Nc1ccc(-c2cc(C(=O)Nc3ccc4c(c3)OCO4)c3ccccc3n2)cc1` [Compound P20, 2-(4-Acryloylamino-phenyl)-quinoline-4-carboxylic acid benzo [1,3]dioxol-5-ylamide]: 28.1 ± 1.76% and 45.1 ± 2.55%.
The like results for `C=CC(=O)Nc1ccc(-c2cc(C(=O)Nc3cccc(OC)c3)c3ccccc3n2)cc1` [Compound P21, 2-(4-Acryloylamino-phenyl)-quinoline-4-carboxylic acid (3-methoxy-phenyl)-amide] were, in that order, 35.4 ± 1.58% and 22.2 ± 1.72%.
